In US8222404B2, “[1,2,4]Thiadiazin-3-yl acetic acid compound and methods of making the acetic acid compound” (Anadys Pharmaceuticals, Inc., priority 2008, dated 2012) one finds EC50 data, which are given here for 20 molecules.

One test has as its system HCV Huh-luc/neo-ET replicon cells. As to the kind of experiment: Luciferase-Based HCV Replicon Assay (EC50 (1b)). The format is cell-based. Conditions: 72 hours exposure, luciferase activity. The protocol: Luciferase-Based HCV Replicon Assay Protocol (EC50 (1b))
The cell culture component of the assay was performed essentially as described by Bartenschlager et al., Hepatology 2002, 35, 694-703, wherein exponentially growing HCV Huh-luc/neo-ET replicon cells were seeded at 6×10^3 cells/well in 96 well assay plate. 24 hours later the cells were treated with various concentrations of compound in triplicate. After 72 hours exposure to the compound, the luciferase activity in the wells was determined using Bright-Glo reagent (Promega, Madison, Wis.) with a luminometer (Wallac 1420 Multilabel HTS Counter Victor 2). The background control was replicon cells treated with 100 nM BILN-2061, an inhibitor of the HCV protease. % Inhibition was determined for each compound concentration in relation to the negative (no compound) control to calculate the EC50 (1b).
What is called EC50 is the concentration at which the effect is half-maximal. A low value points to an effect from little substance. For `CS(=O)(=O)NCc1csc2c1S(=O)(=O)N=C(C1=C(O)C3C4CCC(C5CC54)C3N(Cc3ccc(F)cc3)C1=O)N2` (racemic) [Example 23, (rac-di-exo)-N-{3-[3-(4-Fluoro-benzyl)-6-hydroxy-4-oxo-3-aza-tetracyclo[6.3.2.0^2,7.0^9,11]tridec-5-en-5-yl]-1,1-dioxo-1,4-dihydro-1λ^6-thieno[2,3-e][1,2,4]thiadiazin-7-ylmethyl}-methanesulfonamide], the EC50 was ≤ 5 nM.

Staying with this test, now noted: Hepatitis C virus, 72 hours exposure, luciferase activity.
Consider `CS(=O)(=O)NCc1csc2c1S(=O)(=O)N=C(C1=C(O)[C@@H]3C4CCC(CC4)[C@@H]3N(Cc3ccc(F)cc3Cl)C1=O)N2` [Example 96, N-{3-[(2S,7R)-3-(2-Chloro-4-fluoro-benzyl)-6-hydroxy-4-oxo-3-aza-tricyclo[6.2.2.0^2,7]dodec-5-en-5-yl]-1,1-dioxo-1,4-dihydro-1λ^6-thieno[2,3-e][1,2,4]thiadiazin-7-ylmethyl}-methanesulfonamide], for which the EC50 is 20 to 100 nM. With `CS(=O)(=O)NCc1csc2c1S(=O)(=O)N=C(C1=C(O)[C@@H]3[C@H]4CC[C@H](C4)[C@@H]3N(Cc3ccsc3)C1=O)N2` [Example 55, N-[(1R,2S,7R,8S)-3-(6-Hydroxy-4-oxo-3-thiophen-3-ylmethyl-3-aza-tricyclo[6.2.1.0^2,7]undec-5-en-5-yl)-1,1-dioxo-1,4-dihydro-1λ^6-thieno[2,3-e][1,2,4]thiadiazin-7-ylmethyl]-methanesulfonamide], the EC50 is ≤ 5 nM. The molecule `CCC1CN(Cc2ccc(F)cc2)C(=O)C(C2=NS(=O)(=O)c3c(CNS(C)(=O)=O)csc3N2)=C1O` (racemic) [Example 18, rac-N-{3-[5-Ethyl-1-(4-fluoro-benzyl)-4-hydroxy-2-oxo-1,2,5,6-tetrahydro-pyridin-3-yl]-1,1-dioxo-1,4-dihydro-1λ^6-thieno[2,3-e][1,2,4]thiadiazin-7-ylmethyl}-methanesulfonamide] displayed an EC50 of 100 to 1000 nM.

With `CS(=O)(=O)NCc1csc2c1S(=O)(=O)N=C(C1=C(O)[C@@H]3[C@@H]4CC[C@@H](C4)[C@@H]3N(Cc3ccc(F)cc3F)C1=O)N2` [Example 40, N-{3-[(1S,2S,7R,8R)-3-(2,4-Difluoro-benzyl)-6-hydroxy-4-oxo-3-aza-tricyclo[6.2.1.0^2,7]undec-5-en-5-yl]-1,1-dioxo-1,4-dihydro-1λ^6-thieno[2,3-e][1,2,4]thiadiazin-7-ylmethyl}-methanesulfonamide], the EC50 was 20 to 100 nM. The same measure, in the same setting: as for `CS(=O)(=O)NCc1csc2c1S(=O)(=O)N=C(C1=C(O)[C@@H]3[C@@H]4CC[C@@H](C4)[C@@H]3N(Cc3ccc(F)c(Cl)c3)C1=O)N2` [Example 95, N-{3-[(1 S,2S,7R,8R)-3-(3-Chloro-4-fluoro-benzyl)-6-hydroxy-4-oxo-3-aza-tricyclo[6.2.1.0^2,7]undec-5-en-5-yl]-1,1-dioxo-1,4-dihydro-1λ^6-thieno[2,3-e][1,2,4]thiadiazin-7-ylmethyl}-methanesulfonamide], the figure is 20 to 100 nM; as for `CS(=O)(=O)NCc1csc2c1S(=O)(=O)N=C(C1=C(O)[C@@H]3[C@H]4CC[C@H](C4)[C@@H]3N(CCC3CCCC3)C1=O)N2` [Example 30, N-{3-[(1R,2S,7R,8S)-3-(2-Cyclopentyl-ethyl)-6-hydroxy-4-oxo-3-aza-tricyclo[6.2.1.0^2,7]undec-5-en-5-yl]-1,1-dioxo-1,4-dihydro-1λ^6-thieno[2,3-e][1,2,4]thiadiazin-7-ylmethyl}-methanesulfonamide], 20 to 100 nM.

Take `CS(=O)(=O)NCc1csc2c1S(=O)(=O)N=C(C1=C(O)C3C4CC(C5CC54)C3N(Cc3ccc(F)cc3)C1=O)N2` (racemic) [Example 32, (rac-di-exo, di-exo)-N-{3-[3-(4-Fluoro-benzyl)-6-hydroxy-4-oxo-3-aza-tetracyclo[6.3.1.0^2,7.0^9,11]dodec-5-en-5-yl]-1,1-dioxo-1,4-dihydro-1λ^6-thieno[2,3-e][1,2,4]thiadiazin-7-ylmethyl}-methanesulfonamide]: the concentration giving a half-maximal response (EC50) was ≤ 5 nM. On the same count and under the same terms, next, `CS(=O)(=O)NCc1csc2c1S(=O)(=O)N=C(C1=C(O)[C@@H]3C4CCC(CC4)[C@@H]3N(Cc3ccc(F)cc3F)C1=O)N2` [Example 51, N-{3-[(2S,7R)-3-(2,4-Difluoro-benzyl)-6-hydroxy-4-oxo-3-aza-tricyclo[6.2.2.0^2,7]dodec-5-en-5-yl]-1,1-dioxo-1,4-dihydro-1λ^6-thieno[2,3-e][1,2,4]thiadiazin-7-ylmethyl}-methanesulfonamide]: 20 to 100 nM. On the same count and under the same terms, as for `CS(=O)(=O)NCc1csc2c1S(=O)(=O)N=C(C1=C(O)[C@@H]3C4CCC(CC4)[C@@H]3NC1=O)N2` [Example 82, N-[3-((2S,7R)-6-Hydroxy-4-oxo-3-aza-tricyclo[6.2.2.0^2,7]dodec-5-en-5-yl)-1,1-dioxo-1,4-dihydro-1λ^6-thieno[2,3-e][1,2,4]thiadiazin-7-ylmethyl]-methanesulfonamide], the figure is > 1000 nM; as for `CC(C)(C)C1CN(Cc2ccc(F)cc2)C(=O)C(C2=NS(=O)(=O)c3c(CNS(C)(=O)=O)csc3N2)=C1O` (racemic) [Example 14, rac-N-{3-[5-tert-Butyl-1-(4-fluoro-benzyl)-4-hydroxy-2-oxo-1,2,5,6-tetrahydro-pyridin-3-yl]-1,1-dioxo-1,4-dihydro-1λ^6-thieno[2,3-e][1,2,4]thiadiazin-7-ylmethyl}-methanesulfonamide], 5 to 20 nM; as for `CS(=O)(=O)NCc1csc2c1S(=O)(=O)N=C(C1=C(O)[C@@H]3CCC[C@@H]3N(Cc3ccc(F)c(Cl)c3)C1=O)N2` [Example 113, (4aR,7aS)-N-{3-[1-(3-Chloro-4-fluoro-benzyl)-4-hydroxy-2-oxo-2,4a,5,6,7,7a-hexahydro-1H-[1]pyrindin-3-yl]-1,1-dioxo-1,4-dihydro-1λ^6-thieno[2,3-e][1,2,4]thiadiazin-7-ylmethyl}-methanesulfonamide], 20 to 100 nM. On the same count and under the same terms, as for `CS(=O)(=O)NCc1csc2c1S(=O)(=O)N=C(C1=C(O)CC(C3CCC3)N(Cc3ccc(F)cc3)C1=O)N2` (racemic) [Example 6, rac-N-{3-[6-Cyclobutyl-1-(4-fluoro-benzyl)-4-hydroxy-2-oxo-1,2,5,6-tetrahydro-pyridin-3-yl]-1,1-dioxo-1,4-dihydro-1λ^6-thieno[2,3-e][1,2,4]thiadiazin-7-ylmethyl}-methanesulfonamide], the figure is 100 to 1000 nM; as for `CS(=O)(=O)NCc1csc2c1S(=O)(=O)N=C(C1=C(O)C3C4CCC(O4)C3N(Cc3ccc(F)cc3)C1=O)N2` (racemic) [Example 90, (rac-di-exo)-N-{3-[3-(4-Fluoro-benzyl)-6-hydroxy-4-oxo-11-oxa-3-aza-tricyclo[6.2.1.0^2,7]undec-5-en-5-yl]-1,1-dioxo-1,4-dihydro-1λ^6-thieno[2,3-e][1,2,4]thiadiazin-7-ylmethyl}-methanesulfonamide], 5 to 20 nM; as for `CS(=O)(=O)NCc1csc2c1S(=O)(=O)N=C(C1=C(O)[C@@H]3[C@H]4CC[C@H](C4)[C@@H]3NC1=O)N2` [Example 80, N-[3-((1R,2S,7R,8S)-6-Hydroxy-4-oxo-3-aza-tricyclo[6.2.1.0^2,7]undec-5-en-5-yl)-1,1-dioxo-1,4-dihydro-1λ^6-thieno[2,3-e][1,2,4]thiadiazin-7-ylmethyl]-methanesulfonamide], > 1000 nM. Consider `CC(C)(C)CCN1C(=O)C(C2=NS(=O)(=O)c3c(CNS(C)(=O)=O)csc3N2)=C(O)C2C3C=CC(C3)C21` (racemic) [Example 65, (rac-di-exo)-N-{3-[3-(3,3-Dimethyl-butyl)-6-hydroxy-4-oxo-3-aza-tricyclo[6.2.1.0^2,7]undeca-5,9-dien-5-yl]-1,1-dioxo-1,4-dihydro-1λ^6-thieno[2,3-e][1,2,4]thiadiazin-7-ylmethyl}-methanesulfonamide], for which the concentration giving a half-maximal response (EC50) is ≤ 5 nM. `CCCC1CN(Cc2ccc(F)cc2)C(=O)C(C2=NS(=O)(=O)c3c(CNS(C)(=O)=O)csc3N2)=C1O` (racemic) [Example 15, rac-N-{3-[1-(4-Fluoro-benzyl)-4-hydroxy-2-oxo-5-propyl-1,2,5,6-tetrahydro-pyridin-3-yl]-1,1-dioxo-1,4-dihydro-1λ^6-thieno[2,3-e][1,2,4]thiadiazin-7-ylmethyl}-methanesulfonamide]: the 50% effective concentration (EC50) is 100 to 1000 nM. Still for that read-out and setting: next, `CS(=O)(=O)NCc1csc2c1S(=O)(=O)N=C(C1=C(O)C(C3CCCC3)CN(Cc3ccc(F)cc3)C1=O)N2` (racemic) [Example 16, rac-N-{3-[5-Cyclopentyl-1-(4-fluoro-benzyl)-4-hydroxy-2-oxo-1,2,5,6-tetrahydro-pyridin-3-yl]-1,1-dioxo-1,4-dihydro-1λ^6-thieno[2,3-e][1,2,4]thiadiazin-7-ylmethyl}-methanesulfonamide]: 20 to 100 nM. The same measure, in the same setting: as for `CC(C)(C)CCN1C(=O)C(C2=NS(=O)(=O)c3c(CNS(C)(=O)=O)csc3N2)=C(O)C2C3CCC(O3)C21` (racemic) [Example 62, (rac-di-exo)-N-{3-[3-(3,3-Dimethyl-butyl)-6-hydroxy-4-oxo-11-oxa-3-aza-tricyclo[6.2.1.0^2,7]undec-5-en-5-yl]-1,1-dioxo-1,4-dihydro-1λ^6-thieno[2,3-e][1,2,4]thiadiazin-7-ylmethyl}-methanesulfonamide], the figure is 5 to 20 nM; as for `CS(=O)(=O)NCc1csc2c1S(=O)(=O)N=C(C1=C(O)[C@@H]3CCC[C@@H]3N(Cc3ccsc3)C1=O)N2` [Example 127, (4aR,7aS)-N-[3-(4-Hydroxy-2-oxo-1-thiophen-3-ylmethyl-2,4a,5,6,7,7a-hexahydro-1H-[1]pyrindin-3-yl)-1,1-dioxo-1,4-dihydro-1λ^6-thieno[2,3-e][1,2,4]thiadiazin-7-ylmethyl]-methanesulfonamide], 5 to 20 nM.
